Results on three compounds are retold here after BindingDB's records for doi:10.1074/jbc.M114.559062 (Case Western Reserve University School of Medicine, 2014).

In test [1] the target is T1, Fatty acid-binding protein 5 (Mus musculus, UniProt Q05816).
T1 sequence (Q05816 whole entry): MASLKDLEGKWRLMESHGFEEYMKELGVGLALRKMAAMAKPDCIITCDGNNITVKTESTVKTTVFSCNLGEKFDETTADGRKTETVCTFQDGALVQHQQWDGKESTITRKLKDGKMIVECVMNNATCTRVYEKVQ
Briefly: Fluorescence Competition Assay. As for the experimental part: (§1) The method entails two steps [Lin et al., Biochemistry, 38:185-190]. In the first step, the Kd for association of FABP5 with the fluorescent lipid probe anilinonaphtalene-8-sulfonic acid (ANS) was measured by fluorescence titrations. Kd values for nonfluorescent ligands were then measured by monitoring their ability to compete with the probe for binding. FABP5 was precomplexed with ANS and titrated with ligands. Ligand binding was followed by monitoring the decrease in fluorescence upon displacement of the probe from the protein.

In test [2] the target is T2, Fatty acid-binding protein 5-ANS (Mus musculus, UniProt Q05816).
T2 sequence (Q05816 whole entry): T1 sequence (Q05816 whole entry)
In words: Fluorescence Competition Assay. As for the experimental part: as §1

What is called Kd is the constant that tells how readily two partners part at equilibrium.

With `O=S(=O)(O)c1cccc2cccc(Nc3ccccc3)c12` [ANS], the affinity in test [1], expressed as Kd, was 70 nM.

In test [2], `CCCCC/C=C\C/C=C\C/C=C\C/C=C\CCCC(=O)O` [[1-14C]Arachidonic acid] showed a Kd of 42.1 nM.

`CCCCC/C=C\C/C=C\C/C=C\C/C=C\CCCC(=O)NCCO` [Arachidonoyl ethanolamide] yielded a Kd in test [2] of 100 nM.
